Measured values published in article doi:10.1101/2025.03.14.643404, “A Bivalent Molecular Glue Linking Lysine Acetyltransferases to Oncogene-induced Cell Death” (bioRxiv, 2025).

Experiments:
[1] = test system: H2BK20ac; assay: ChIP-seq for H2BK20ac in SUDHL5; type: cell-based, human; details: SUDHL5, 1 nM, 1 hour
Protocol: 25–30 million cells were treated with TCIP3 or DMSO for indicated timepoints. Cells were washed in PBS containing TCIP3 or DMSO and crosslinked for 11 min in CiA Fix Buffer (50 mM HEPES pH 8.0, 1 mM EDTA, 0.5 mM EGTA, 100 mM NaCl) with addition of formaldehyde to a final concentration of 1%. The crosslinking reaction was quenched by glycine added at 0.125 M final concentration. Crosslinked cells were centrifuged at 1,000 × g for 5 min. […] Library size distributions were confirmed using an Agilent Bioanalyzer and High Sensitivity DNA reagents (Agilent 5067) and concentrations determined by qPCR. […]
The data quality was checked using fastq (https://www.bioinformatics.babraham.ac.uk/projects/fastqc/). The raw reads were trimmed from adapters with cutadapt (parameters: -a […] -A […]) and raw reads were aligned to hg38 human genome assembly using bowtie2 (parameters: --local --maxins 1000). Low quality reads, duplicated reads and reads with multiple alignments were removed using samtools[120] and Picard (https://broadinstitute.github.io/picard/). macs2[121] was used to map position of peaks with FDR cutoff of 0.05. […] All browser tracks and metaprofiles shown were calculated with sequence-depth-normalized, replicate-merged (bigWigMerge[125]) and, for ChIP-seq, input-subtracted data (deeptools bigWigCompare). […]

[2] = test system: c-MYC; assay: RNA-seq, c-MYC transcripts in SUDHL5; type: cell-based, human; details: SUDHL5, 1 nM, 2 hours
Protocol: Cells were plated at 1M/mL and harvested in TRIsure (Bioline 38033). RNA was extracted using Direct-zol RNA MicroPrep columns (Zymo R2062) treated with DNAseI. cDNA was prepared (Meridian Bioscience BIO-65054) and used for qPCR (Meridian Bioscience BIO-94050) using an AppliedBiosystems QuantStudio 6Pro. Primer sequences were the following:
For sequencing library preparation, rRNA was depleted (NEB E7400) and total RNA prepared into paired-end libraries (NEB E7765) and indexed (NEB E7335). Library size distributions were confirmed using an Agilent Bioanalyzer and High Sensitivity DNA reagents (Agilent 5067) and concentrations determined by qPCR. […]
Raw reads were checked for quality using fastqc (https://www.bioinformatics.babraham.ac.uk/projects/fastqc/) and trimmed from adapters using cutadapt[111] using parameters cutadapt -a […] -b […] --nextseq-trim=20 --minimum-length 1. Transcripts were quantified using kallisto[112] against the human Gencode v33 indexed transcriptome and annotations. […] Re-processed published datasets from the Sequence Read Archive (SRA) were the following: TCIP1 – SRX20228454, SRX20228455, SRX202284546, SRX20228457, SRX20228458, SRX20228459, SRX20228448, SRX20228449, SRX20228450; CDK-TCIP1 – SRX22117221, SRX22117222, SRX22117223, SRX22117224, SRX22117225, SRX22117226, SRX22117227, SRX22117228, SRX22117229).

CNC(=O)COc1cc2cc(Nc3nc(N4CCC(C(=O)N5CCN(CCC(=O)N6CCC(n7nc(N8CCCc9cc(-c%10cnn(C)c%10)c(C(F)F)cc98)c8c7CCN(C(=O)NC)C8)CC6)CC5)CC4)ncc3Cl)cc(OC)c2n(C)c1=O [TCIP3]
H2BK20ac peaks gained [1]: 936
H2BK20ac peaks lost [1]: 4,346
c-MYC mRNA log2(fold change) [2]: −2.71
